For experiment [1], the target named is T1, GLP (Homo sapiens, UniProt Q9H9B1).
T1 construct: gene EHMT1
T1 sequence (Q9H9B1 1-1298): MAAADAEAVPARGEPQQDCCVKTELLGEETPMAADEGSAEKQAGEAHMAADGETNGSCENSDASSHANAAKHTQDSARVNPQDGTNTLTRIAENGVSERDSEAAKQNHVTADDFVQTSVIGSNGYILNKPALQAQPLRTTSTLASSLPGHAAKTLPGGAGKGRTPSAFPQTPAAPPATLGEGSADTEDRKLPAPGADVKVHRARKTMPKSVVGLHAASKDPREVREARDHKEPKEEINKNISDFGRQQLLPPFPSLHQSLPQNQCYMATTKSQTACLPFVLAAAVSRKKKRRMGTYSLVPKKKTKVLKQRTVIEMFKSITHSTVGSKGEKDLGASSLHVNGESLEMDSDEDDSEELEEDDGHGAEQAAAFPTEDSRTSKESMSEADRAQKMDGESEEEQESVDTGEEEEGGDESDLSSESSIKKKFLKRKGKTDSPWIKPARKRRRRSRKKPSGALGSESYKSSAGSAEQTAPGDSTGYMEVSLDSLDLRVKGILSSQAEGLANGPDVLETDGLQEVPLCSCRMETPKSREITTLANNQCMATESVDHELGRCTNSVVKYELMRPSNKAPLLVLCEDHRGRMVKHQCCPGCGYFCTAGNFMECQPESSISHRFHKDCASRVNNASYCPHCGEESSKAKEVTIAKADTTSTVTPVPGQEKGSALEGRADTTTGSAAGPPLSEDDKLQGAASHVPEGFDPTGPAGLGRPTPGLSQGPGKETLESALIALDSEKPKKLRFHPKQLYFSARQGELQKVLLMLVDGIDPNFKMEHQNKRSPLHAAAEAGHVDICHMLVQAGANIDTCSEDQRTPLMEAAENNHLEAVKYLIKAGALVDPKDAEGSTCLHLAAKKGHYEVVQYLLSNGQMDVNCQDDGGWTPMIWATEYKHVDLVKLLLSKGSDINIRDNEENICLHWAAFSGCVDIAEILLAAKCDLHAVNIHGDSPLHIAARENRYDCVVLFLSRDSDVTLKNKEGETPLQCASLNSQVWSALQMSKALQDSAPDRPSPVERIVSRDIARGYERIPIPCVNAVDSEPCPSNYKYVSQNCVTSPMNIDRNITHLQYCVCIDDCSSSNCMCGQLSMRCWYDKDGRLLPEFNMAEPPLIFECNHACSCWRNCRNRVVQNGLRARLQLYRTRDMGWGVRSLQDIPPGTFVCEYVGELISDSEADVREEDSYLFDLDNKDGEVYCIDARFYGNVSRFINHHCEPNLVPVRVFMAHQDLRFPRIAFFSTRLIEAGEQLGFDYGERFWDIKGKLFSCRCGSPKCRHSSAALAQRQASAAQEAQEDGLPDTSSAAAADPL
The experiment in a line: biochemical. The following applies: read-out: DA3003-1 IC50; inhibitor.

For experiment [2], the target named is T2, PRMT5/MEP50 Complex (Homo sapiens, UniProt O14744).
T2 construct: coexpressed Flag-PRMT5 and His-MEP50, insect cell/baculovirus; with Methylosome protein WDR77
T2 sequence (O14744 2-637): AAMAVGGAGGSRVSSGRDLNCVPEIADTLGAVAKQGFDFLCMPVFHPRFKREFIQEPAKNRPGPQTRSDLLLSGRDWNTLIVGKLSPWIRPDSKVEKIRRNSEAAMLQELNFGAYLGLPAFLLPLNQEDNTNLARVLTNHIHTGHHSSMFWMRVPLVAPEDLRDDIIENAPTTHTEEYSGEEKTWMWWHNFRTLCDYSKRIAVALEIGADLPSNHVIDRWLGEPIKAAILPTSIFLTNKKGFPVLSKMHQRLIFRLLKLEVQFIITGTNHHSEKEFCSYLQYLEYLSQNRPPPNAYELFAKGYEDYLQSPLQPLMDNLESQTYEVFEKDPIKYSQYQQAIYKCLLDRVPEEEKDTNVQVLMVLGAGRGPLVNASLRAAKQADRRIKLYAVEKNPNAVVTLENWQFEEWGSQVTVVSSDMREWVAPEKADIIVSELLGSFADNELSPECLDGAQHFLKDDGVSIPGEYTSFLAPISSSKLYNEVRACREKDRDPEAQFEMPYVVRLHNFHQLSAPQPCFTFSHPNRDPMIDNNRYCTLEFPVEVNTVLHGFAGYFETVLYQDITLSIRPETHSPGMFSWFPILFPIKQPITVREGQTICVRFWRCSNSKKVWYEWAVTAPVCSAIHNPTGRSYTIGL
T2 sequence (Q9BQA1 2-342 partner): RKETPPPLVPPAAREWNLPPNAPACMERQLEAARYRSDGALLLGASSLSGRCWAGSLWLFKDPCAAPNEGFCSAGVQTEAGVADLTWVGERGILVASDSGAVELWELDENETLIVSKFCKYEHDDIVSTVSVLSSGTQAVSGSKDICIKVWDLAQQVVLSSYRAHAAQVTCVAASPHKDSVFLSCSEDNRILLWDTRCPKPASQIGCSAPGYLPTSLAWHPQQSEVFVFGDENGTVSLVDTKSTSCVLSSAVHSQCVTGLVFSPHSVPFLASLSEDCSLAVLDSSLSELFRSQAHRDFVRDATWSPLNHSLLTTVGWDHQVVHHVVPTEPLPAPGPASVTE
Kind of experiment: HotSpot [3H]SAM filter-binding methyltransferase assay. The format is biochemical. Conditions: histone H2A, […] SAM, pH […] DTT, […] °C, single experiment.

The structures appear in SMILES notation.

With `O=C1C(Cl)=C(NCCN2CCOCC2)C(=O)c2ncccc21` [DA3003-1], the IC50 in experiment [1] is 36 µM. In turn, `COc1cccc(-n2nc(C(=O)O)cc2-c2ccc(C3CCCCC3)c(Cl)c2)c1` [TC LPA5 4] yielded a concentration for half-maximal inhibition (IC50) in experiment [2] of 0.33 µM.

Values taken from doi:10.1101/208439v1 (biorxiv, 2017).
